Values of other authors, collected in PMC9516332 (Frontiers in Oncology, 2022).
Read-outs that look alike come from different tables or passages of the source.

Experiments:
Details in all cases: cited from earlier work
[1] = target: T1, panel of 255 wild-type kinases (Homo sapiens, UniProt P29322)
T1 sequence (P29322 28-1005): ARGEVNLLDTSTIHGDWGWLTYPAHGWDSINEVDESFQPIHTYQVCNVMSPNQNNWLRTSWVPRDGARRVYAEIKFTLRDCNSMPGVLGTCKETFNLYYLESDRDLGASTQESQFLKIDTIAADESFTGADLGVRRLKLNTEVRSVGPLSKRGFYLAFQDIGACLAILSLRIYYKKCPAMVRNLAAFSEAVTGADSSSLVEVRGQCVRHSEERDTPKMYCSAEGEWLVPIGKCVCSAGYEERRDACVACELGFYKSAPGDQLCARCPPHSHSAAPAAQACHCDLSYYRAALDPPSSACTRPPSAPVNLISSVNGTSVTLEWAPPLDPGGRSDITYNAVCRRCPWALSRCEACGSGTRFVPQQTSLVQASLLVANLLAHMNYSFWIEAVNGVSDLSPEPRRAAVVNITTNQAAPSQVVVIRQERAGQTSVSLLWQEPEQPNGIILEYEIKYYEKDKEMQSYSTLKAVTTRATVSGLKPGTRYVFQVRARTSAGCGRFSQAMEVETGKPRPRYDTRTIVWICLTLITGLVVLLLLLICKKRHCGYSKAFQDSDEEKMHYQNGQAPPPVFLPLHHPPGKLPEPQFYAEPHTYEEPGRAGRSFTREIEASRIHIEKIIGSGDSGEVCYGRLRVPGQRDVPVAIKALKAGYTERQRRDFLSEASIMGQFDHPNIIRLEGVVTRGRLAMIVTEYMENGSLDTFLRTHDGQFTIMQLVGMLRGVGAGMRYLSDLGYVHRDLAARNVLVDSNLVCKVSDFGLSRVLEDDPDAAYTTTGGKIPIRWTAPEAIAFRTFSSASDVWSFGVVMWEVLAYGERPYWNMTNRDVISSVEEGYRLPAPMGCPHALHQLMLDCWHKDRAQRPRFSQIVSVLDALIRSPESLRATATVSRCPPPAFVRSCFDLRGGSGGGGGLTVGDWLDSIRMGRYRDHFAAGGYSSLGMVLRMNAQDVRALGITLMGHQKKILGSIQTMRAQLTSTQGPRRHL

[2] = target: panel of 255 wild-type kinases (Homo sapiens, UniProt P16234)
[3] = target: T2, panel of 255 wild-type kinases (Homo sapiens, UniProt Q96PF2)
T2 sequence (Q96PF2 1-358): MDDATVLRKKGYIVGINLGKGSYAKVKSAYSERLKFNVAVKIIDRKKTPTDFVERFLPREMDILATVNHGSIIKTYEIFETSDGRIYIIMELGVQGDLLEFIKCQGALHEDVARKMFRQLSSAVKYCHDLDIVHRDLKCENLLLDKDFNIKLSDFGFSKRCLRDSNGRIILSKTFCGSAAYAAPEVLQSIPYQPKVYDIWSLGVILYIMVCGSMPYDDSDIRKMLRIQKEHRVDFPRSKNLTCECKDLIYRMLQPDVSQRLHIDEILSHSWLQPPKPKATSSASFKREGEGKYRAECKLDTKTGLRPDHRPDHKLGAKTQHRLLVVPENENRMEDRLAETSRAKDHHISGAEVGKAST

[4] = target: T3, panel of 255 wild-type kinases (Homo sapiens, UniProt Q05513)
T3 sequence (Q05513 1-592): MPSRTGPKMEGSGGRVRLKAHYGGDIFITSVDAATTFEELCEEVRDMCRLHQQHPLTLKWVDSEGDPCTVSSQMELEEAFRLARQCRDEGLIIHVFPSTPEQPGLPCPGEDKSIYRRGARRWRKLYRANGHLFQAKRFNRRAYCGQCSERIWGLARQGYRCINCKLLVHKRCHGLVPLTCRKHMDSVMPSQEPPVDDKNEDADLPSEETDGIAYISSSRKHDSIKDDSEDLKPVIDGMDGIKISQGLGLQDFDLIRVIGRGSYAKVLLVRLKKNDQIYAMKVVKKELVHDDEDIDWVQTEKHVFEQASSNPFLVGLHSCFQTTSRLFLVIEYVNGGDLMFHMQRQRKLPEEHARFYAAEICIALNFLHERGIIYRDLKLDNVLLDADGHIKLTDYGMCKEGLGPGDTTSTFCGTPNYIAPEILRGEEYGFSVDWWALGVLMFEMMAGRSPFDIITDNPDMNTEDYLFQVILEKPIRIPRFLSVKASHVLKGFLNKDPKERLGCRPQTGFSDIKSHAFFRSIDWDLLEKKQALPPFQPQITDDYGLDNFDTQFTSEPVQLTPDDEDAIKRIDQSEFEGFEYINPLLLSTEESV

[5] = target: panel of 255 wild-type kinases (Homo sapiens, UniProt P27361)
[6] = kinase EPHA8, 1 µmol/L single concentration, ref DOI: 10.1371/journal.pone.0092146
[7] = kinase PDGFRα, 1 µmol/L single concentration, ref DOI: 10.1371/journal.pone.0092146
[8] = kinase TSSK2, 1 µmol/L single concentration, ref DOI: 10.1371/journal.pone.0092146
[9] = kinase PKCζ, 1 µmol/L single concentration, ref DOI: 10.1371/journal.pone.0092146
[10] = kinase Erk1, 1 µmol/L single concentration, ref DOI: 10.1371/journal.pone.0092146
[11] = kinase EPHA8, 1 µmol/L single concentration, ref DOI: 10.1158/1535-7163.MCT-18-0877
[12] = kinase PDGFRα, 1 µmol/L single concentration, ref DOI: 10.1158/1535-7163.MCT-18-0877
[13] = kinase TSSK2, 1 µmol/L single concentration, ref DOI: 10.1158/1535-7163.MCT-18-0877
[14] = kinase PKCζ, 1 µmol/L single concentration, ref DOI: 10.1158/1535-7163.MCT-18-0877
[15] = kinase Erk1, 1 µmol/L single concentration, ref DOI: 10.1158/1535-7163.MCT-18-0877

CCCS(=O)(=O)Nc1ccc(F)c(C(=O)c2c[nH]c3ncc(-c4ccc(Cl)cc4)cc23)c1F [vemurafenib]
%-inhibition at 1 µmol/L, EPHA8 [1, 6]: 7%
%-inhibition at 1 µmol/L, PDGFRα [2, 7]: 87%
%-inhibition at 1 µmol/L, TSSK2 [3, 8]: -11%
%-inhibition at 1 µmol/L, PKCζ [4, 9]: 13%
%-inhibition at 1 µmol/L, Erk1 [5, 10]: 0.0533%

CC(=O)Nc1cccc(-n2c(=O)n(C3CC3)c(=O)c3c(Nc4ccc(I)cc4F)n(C)c(=O)c(C)c32)c1 [trametinib]
%-inhibition at 1 µmol/L, EPHA8 [1, 6]: -8%
%-inhibition at 1 µmol/L, PDGFRα [2, 7]: 4.53%
%-inhibition at 1 µmol/L, TSSK2 [3, 8]: -1.73%
%-inhibition at 1 µmol/L, PKCζ [4, 9]: 4.31%
%-inhibition at 1 µmol/L, Erk1 [5, 10]: -1.14%

CCc1cc2c(cc1N1CCC(N3CCOCC3)CC1)C(C)(C)c1[nH]c3cc(C#N)ccc3c1C2=O [alectinib]
%-inhibition at 1 µmol/L, EPHA8 [1, 11]: 12%
%-inhibition at 1 µmol/L, PDGFRα [2, 12]: 43%
%-inhibition at 1 µmol/L, TSSK2 [3, 13]: 7%
%-inhibition at 1 µmol/L, PKCζ [4, 14]: 10%
%-inhibition at 1 µmol/L, Erk1 [5, 15]: 1.41%

CC(C)(C)c1nc(-c2cccc(NS(=O)(=O)c3c(F)cccc3F)c2F)c(-c2ccnc(N)n2)s1 [dabrafenib]
%-inhibition at 1 µmol/L, EPHA8 [1, 6]: 35%
%-inhibition at 1 µmol/L, PDGFRα [2, 7]: 63%
%-inhibition at 1 µmol/L, TSSK2 [3, 8]: -1.73%
%-inhibition at 1 µmol/L, PKCζ [4, 9]: 5%
%-inhibition at 1 µmol/L, Erk1 [5, 10]: -1.62%

CC#CC(=O)N1CCC[C@H]1c1nc(-c2ccc(C(=O)Nc3ccccn3)cc2)c2c(N)nccn12 [acalabrutinib]
%-inhibition at 1 µmol/L, EPHA8 [1, 11]: 6.51%
%-inhibition at 1 µmol/L, PDGFRα [2, 12]: 1.38%
%-inhibition at 1 µmol/L, TSSK2 [3, 13]: -3%
%-inhibition at 1 µmol/L, PKCζ [4, 14]: -5.44%
%-inhibition at 1 µmol/L, Erk1 [5, 15]: -2.38%

O=C(c1ccc(F)c(F)c1Nc1ccc(I)cc1F)N1CC(O)([C@@H]2CCCCN2)C1 [cobimetinib]
%-inhibition at 1 µmol/L, EPHA8 [1, 11]: -5.33%
%-inhibition at 1 µmol/L, PDGFRα [2, 12]: 11%
%-inhibition at 1 µmol/L, TSSK2 [3, 13]: -2.33%
%-inhibition at 1 µmol/L, PKCζ [4, 14]: 9%
%-inhibition at 1 µmol/L, Erk1 [5, 15]: -0.916%

C=CC(=O)Nc1cc(Nc2nccc(-c3cn(C)c4ccccc34)n2)c(OC)cc1N(C)CCN(C)C [osimertinib]
%-inhibition at 1 µmol/L, EPHA8 [1, 11]: -8%
%-inhibition at 1 µmol/L, PDGFRα [2, 12]: 69%
%-inhibition at 1 µmol/L, TSSK2 [3, 13]: -0.257%
%-inhibition at 1 µmol/L, PKCζ [4, 14]: 9.52%
%-inhibition at 1 µmol/L, Erk1 [5, 15]: -3.18%

Cc1cc(Nc2ncc(Cl)c(Nc3ccccc3S(=O)(=O)C(C)C)n2)c(OC(C)C)cc1C1CCNCC1 [ceritinib]
%-inhibition at 1 µmol/L, EPHA8 [1, 11]: 6%
%-inhibition at 1 µmol/L, PDGFRα [2, 12]: 61%
%-inhibition at 1 µmol/L, TSSK2 [3, 13]: 75%
%-inhibition at 1 µmol/L, PKCζ [4, 14]: 14%
%-inhibition at 1 µmol/L, Erk1 [5, 15]: 35%

CO[C@@H]1[C@H](N(C)C(=O)c2ccccc2)C[C@H]2O[C@]1(C)n1c3ccccc3c3c4c(c5c6ccccc6n2c5c31)C(=O)NC4 [midostaurin]
%-inhibition at 1 µmol/L, EPHA8 [1, 11]: 6.51%
%-inhibition at 1 µmol/L, PDGFRα [2, 12]: 99%
%-inhibition at 1 µmol/L, TSSK2 [3, 13]: 24%
%-inhibition at 1 µmol/L, PKCζ [4, 14]: -3.41%
%-inhibition at 1 µmol/L, Erk1 [5, 15]: -0.653%

COc1cc(N2CCC(N3CCN(C)CC3)CC2)ccc1Nc1ncc(Cl)c(Nc2ccccc2P(C)(C)=O)n1 [brigatinib]
%-inhibition at 1 µmol/L, EPHA8 [1]: 6.55%
%-inhibition at 1 µmol/L, PDGFRα [2]: 96%
%-inhibition at 1 µmol/L, TSSK2 [3]: 79%
%-inhibition at 1 µmol/L, PKCζ [4]: 5%
%-inhibition at 1 µmol/L, Erk1 [5]: 3.68%

C=CC(=O)N1CCC[C@@H](n2nc(-c3ccc(Oc4ccccc4)cc3)c3c(N)ncnc32)C1 [ibrutinib]
%-inhibition at 1 µmol/L, EPHA8 [1, 11]: 55%
%-inhibition at 1 µmol/L, PDGFRα [2, 12]: 94%
%-inhibition at 1 µmol/L, TSSK2 [3, 13]: -4%
%-inhibition at 1 µmol/L, PKCζ [4, 14]: 10%
%-inhibition at 1 µmol/L, Erk1 [5, 15]: 1.74%

C[C@@H](Oc1cc(-c2cnn(C3CCNCC3)c2)cnc1N)c1c(Cl)ccc(F)c1Cl [crizotinib]
%-inhibition at 1 µmol/L, EPHA8 [1, 6]: 82%
%-inhibition at 1 µmol/L, PDGFRα [2, 7]: 49%
%-inhibition at 1 µmol/L, TSSK2 [3, 8]: 0.896%
%-inhibition at 1 µmol/L, PKCζ [4, 9]: 9%
%-inhibition at 1 µmol/L, Erk1 [5, 10]: -2%
